Data from US9884063B2, “Amido-substituted azole compounds” (Bayer Pharma Aktiengesellschaft, priority 2014, dated 2018).

How the values were obtained:
[1] = target: T1, TNKS1 (Homo sapiens, UniProt O95271); experiment: Modified TNKS1 Assay 2 (auto-parsylation, [3H]-NAD+ SPA); type: biochemical; conditions: 6 nM TNKS1, 96 well
T1 sequence (O95271 1-1327): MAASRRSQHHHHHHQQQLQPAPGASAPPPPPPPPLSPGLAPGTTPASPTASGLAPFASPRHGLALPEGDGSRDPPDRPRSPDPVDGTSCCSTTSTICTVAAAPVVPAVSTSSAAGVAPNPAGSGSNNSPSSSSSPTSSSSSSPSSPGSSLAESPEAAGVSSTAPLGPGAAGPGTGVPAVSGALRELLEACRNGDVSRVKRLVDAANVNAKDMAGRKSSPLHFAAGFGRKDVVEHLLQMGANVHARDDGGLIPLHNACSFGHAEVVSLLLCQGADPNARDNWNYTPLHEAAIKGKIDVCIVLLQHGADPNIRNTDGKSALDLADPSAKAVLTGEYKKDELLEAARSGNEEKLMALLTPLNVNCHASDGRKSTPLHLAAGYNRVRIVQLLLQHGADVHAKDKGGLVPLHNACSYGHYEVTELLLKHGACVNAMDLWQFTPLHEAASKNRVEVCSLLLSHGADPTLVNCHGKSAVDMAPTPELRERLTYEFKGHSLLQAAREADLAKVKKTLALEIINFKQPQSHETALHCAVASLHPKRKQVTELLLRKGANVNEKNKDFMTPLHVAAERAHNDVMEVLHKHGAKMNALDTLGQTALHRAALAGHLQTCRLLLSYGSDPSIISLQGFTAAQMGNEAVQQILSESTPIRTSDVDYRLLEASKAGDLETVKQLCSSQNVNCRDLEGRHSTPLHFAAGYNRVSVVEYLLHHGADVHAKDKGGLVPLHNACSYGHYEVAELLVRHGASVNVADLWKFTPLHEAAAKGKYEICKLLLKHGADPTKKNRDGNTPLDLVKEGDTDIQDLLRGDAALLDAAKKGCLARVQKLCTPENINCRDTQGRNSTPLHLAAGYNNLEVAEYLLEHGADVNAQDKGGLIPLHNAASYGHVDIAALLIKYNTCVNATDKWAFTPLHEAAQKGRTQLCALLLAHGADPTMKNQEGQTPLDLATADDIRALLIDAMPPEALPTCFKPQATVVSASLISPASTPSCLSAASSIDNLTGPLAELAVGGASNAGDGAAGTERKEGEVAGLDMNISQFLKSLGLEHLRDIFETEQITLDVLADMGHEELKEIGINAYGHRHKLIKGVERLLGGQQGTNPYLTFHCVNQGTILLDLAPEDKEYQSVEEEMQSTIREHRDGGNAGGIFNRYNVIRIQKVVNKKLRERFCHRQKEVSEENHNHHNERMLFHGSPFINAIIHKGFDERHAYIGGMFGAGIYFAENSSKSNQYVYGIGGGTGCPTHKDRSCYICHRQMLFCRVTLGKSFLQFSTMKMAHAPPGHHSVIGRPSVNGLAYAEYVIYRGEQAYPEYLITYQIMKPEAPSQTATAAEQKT

[2] = system: HEK293 FOP control reporter cell line; experiment: HEK293 FOP Assay (FOP control vector luciferase reporter); type: cell-based; conditions: Homo sapiens; HEK293 FOP control reporter cell line, 16 hours incubation, compound dilution series 50 μM to 15 nM
Outline: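 Stable HEK293 line carrying the FOP vector (randomized, non-functional TCF sites; Geneticin-selected) was run in parallel with the TOP line. Cells were plated 24 h ahead at 10000/well and given recombinant human Wnt-3a at 2500–5 ng/ml. Compounds were tested at 50 μM–15 nM (3.16-fold steps) in CAFTY buffer, pH 7.4, with 2 mM Ca2+ and 0.01% BSA.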

Row | IC50 [1] [µM] | Compound | IC50 [2] [µM]
1 | 0.4 | CC1(C)CC(NC(=O)c2nc[nH]c2C(=O)Nc2ccc(NC(=O)c3ccc(F)cc3Cl)cc2)CCO1 (stereo not drawn) [Example 391, N^5-{4-[(2-chloro-4-fluorobenzoyl)amino]phenyl}-N^4-(2,2-dimethyltetrahydro-2H-pyran-4-yl)-1H-imidazole-4,5-dicarboxamide] | 27
2 | 0.08 | CCN1CCC[C@@H]1CNC(=O)c1nc[nH]c1C(=O)Nc1ccc(NC(=O)c2ccc(F)cc2Cl)cc1 [Example 413, N^5-{4-[(2-chloro-4-fluorobenzoyl)amino]phenyl}-N^4-{[(2R)-1-ethylpyrrolidin-2-yl]methyl}-1H-imidazole-4,5-dicarboxamide] | 26
3 | 0.07 | CN1CCN(CC(C)(C)CNC(=O)c2nc[nH]c2C(=O)Nc2ccc(NC(=O)c3ccc(F)cc3Cl)cc2)CC1 [Example 415, N^5-{4-[(2-chloro-4-fluorobenzoyl)amino]phenyl}-N^4-[2,2-dimethyl-3-(4-methylpiperazin-1-yl)propyl]-1H-imidazole-4,5-dicarboxamide] | 7.8
